Measured values: patent publication US8431565B2 (priority 2007, dated 2013)

Molecular target: human CB1 receptor (hCB1) (Homo sapiens, UniProt P21554)
Format: cell-based

human CB1 receptor (hCB1), sequence (P21554 whole entry): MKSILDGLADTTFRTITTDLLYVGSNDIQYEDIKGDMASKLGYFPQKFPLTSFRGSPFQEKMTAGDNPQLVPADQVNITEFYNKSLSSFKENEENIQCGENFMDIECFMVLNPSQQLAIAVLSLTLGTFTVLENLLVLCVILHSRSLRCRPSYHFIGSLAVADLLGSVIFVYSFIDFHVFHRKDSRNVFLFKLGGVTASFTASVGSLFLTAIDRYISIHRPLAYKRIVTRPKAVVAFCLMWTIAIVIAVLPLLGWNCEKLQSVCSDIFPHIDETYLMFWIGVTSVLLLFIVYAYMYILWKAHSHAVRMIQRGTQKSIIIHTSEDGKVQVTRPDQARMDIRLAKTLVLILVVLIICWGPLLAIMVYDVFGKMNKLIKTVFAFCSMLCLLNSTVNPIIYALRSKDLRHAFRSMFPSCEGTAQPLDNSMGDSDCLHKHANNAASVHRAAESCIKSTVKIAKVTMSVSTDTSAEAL

`CNC(=O)[C@@H](NC(=O)c1nc(C2=CCCCO2)n2c1CN(C)CCC2)C(C)(C)C` [Compound 452, (S)-3-(3,4-dihydro-2H-pyran-6-yl)-N-(3,3-dimethyl-1-(methylamino)-1-oxobutan-2-yl)-8-methyl-6,7,8,9-tetrahydro-5H-imidazo[1,5-a][1,4]diazepine-1-carboxamide] and `CNC(=O)[C@@H](NC(=O)c1nc(-c2cnccc2Cl)n2c1CN(C)CCC2)C(C)(C)C` [Compound 627, (S)-3-(4-chloropyridin-3-yl)-N-(3,3-dimethyl-1-(methylamino)-1-oxobutan-2-yl)-8-methyl-6,7,8,9-tetrahydro-5H-imidazo[1,5-a][1,4]diazepine-1-carboxamide] cannot be ordered by EC50: > 10 µM for the first, > 10 µM for the second.

`CNC(=O)[C@H](CC(C)(C)C)NC(=O)c1nc(-c2ccc(F)c(Cl)c2)n2c1CN(C)CCC2` [Compound 546, (S)-3-(3-chloro-4-fluorophenyl)-N-(4,4-dimethyl-1-(methylamino)-1-oxopentan-2-yl)-8-methyl-6,7,8,9-tetrahydro-5-imidazo[1,5-a][1,4]diazepine-1-carboxamide] and `CNC(=O)[C@@H](NC(=O)c1nc(-c2ccnc(-c3ccnc(Cl)c3)c2)n2c1CN(C)CCC2)C(C)(C)C` [Compound 625, (S)-3-(2′-chloro-2,4′-bipyridin-4-yl)-N-(3,3-dimethyl-1-(methylamino)-1-oxobutan-2-yl)-8-methyl-6,7,8,9-tetrahydro-5H-imidazo[1,5-a][1,4]diazepine-1-carboxamide] cannot be ordered by EC50: > 10 µM for the first, > 10 µM for the second.

`CNC(=O)[C@@H](NC(=O)c1nc(-c2ccc(C(F)(F)F)cc2C(F)(F)F)n2c1CN(C)CCC2)C(C)(C)C` [Compound 617, (S)-3-(2,4-bis(trifluoromethyl)phenyl)-N-(3,3-dimethyl-1-(methylamino)-1-oxobutan-2-yl)-8-methyl-6,7,8,9-tetrahydro-5H-imidazo[1,5-a][1,4]diazepine-1-carboxamide] was tested, and the EC50 was > 10 µM.

Molecular target: T1, rat CB2 receptor (rCB2) (Rattus norvegicus, UniProt Q9QZN9)
T1 sequence (Q9QZN9 1-360): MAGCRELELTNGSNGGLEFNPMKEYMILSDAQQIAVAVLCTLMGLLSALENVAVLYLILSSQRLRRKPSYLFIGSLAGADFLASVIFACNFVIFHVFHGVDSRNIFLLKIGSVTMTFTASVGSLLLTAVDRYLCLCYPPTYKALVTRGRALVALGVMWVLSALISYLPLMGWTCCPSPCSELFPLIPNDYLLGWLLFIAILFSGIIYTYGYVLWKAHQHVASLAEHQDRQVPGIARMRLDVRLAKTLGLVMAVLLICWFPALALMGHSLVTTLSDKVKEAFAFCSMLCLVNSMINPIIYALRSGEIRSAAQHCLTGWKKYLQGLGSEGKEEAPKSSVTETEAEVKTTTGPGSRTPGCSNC

`CNC(=O)[C@@H](NC(=O)c1nc(C2=CCNCC2)n2c1CN(C)CC2)C(C)(C)C` [Compound 274, (S)-N-(3,3-dimethyl-1-(methylamino)-1-oxobutan-2-yl)-7-methyl-3-(1,2,3,6-tetrahydropyridin-4-yl)-5,6,7,8-tetrahydroimidazo[1,5-a]pyrazine-1-carboxamide] and `CCc1nc(C(=O)N[C@H](C(=O)NC)C(C)(C)C)c2n1CCN(C)C2` [Compound 310, (S)-N-(3,3-dimethyl-1-(methylamino)-1-oxobutan-2-yl)-3-ethyl-7-methyl-5,6,7,8-tetrahydroimidazo[1,5-a]pyrazine-1-carboxamide] fall in the same range of EC50: 10 to 100 nM for the first, 10 to 100 nM for the second.

`CNC(=O)[C@H](CC(C)C)NC(=O)c1nc(-c2ccc(Cl)cc2F)n2c1CN(C)CC2` [Compound 276, (S)-3-(4-chloro-2-fluorophenyl)-7-methyl-N-(4-methyl-1-(methylamino)-1-oxopentan-2-yl)-5,6,7,8-tetrahydroimidazo[1,5-a]pyrazine-1-carboxamide] and `CNC(=O)[C@H](CC(C)C)NC(=O)c1nc(-c2ccc(Cl)c(F)c2)n2c1CN(C)CC2` [Compound 277, (S)-3-(4-chloro-3-fluorophenyl)-7-methyl-N-(4-methyl-1-(methylamino)-1-oxopentan-2-yl)-5,6,7,8-tetrahydroimidazo[1,5-a]pyrazine-1-carboxamide] fall in the same range of EC50: 10 to 100 nM for the first, 10 to 100 nM for the second.

Compared with `CC(C)(C)c1noc([C@@H](NC(=O)c2nc(-c3ccccc3)n3c2CN(C2CC2)CC3)C(C)(C)C)n1` [Compound 284, (S)-N-(1-(3-tert-butyl-1,2,4-oxadiazol-5-yl)-2,2-dimethylpropyl)-7-cyclopropyl-3-phenyl-5,6,7,8-tetrahydroimidazo[1,5-a]pyrazine-1-carboxamide], `Cc1ccc(-c2nc(C(=O)N[C@H](c3nc(C)no3)C(C)(C)C)c3n2CCCN(C(=O)OC(C)(C)C)C3)c(F)c1` [Compound 518, (S)-tert-butyl 1-(2,2-dimethyl-1-(3-methyl-1,2,4-oxadiazol-5-yl)propylcarbamoyl)-3-(2-fluoro-4-methylphenyl)-6,7-dihydro-5H-imidazo[1,5-a][1,4]diazepine-8(9H)-carboxylate] is higher in EC50: 0.1 to 10 nM for the first, 10 to 100 nM for the second. The first is the more potent here.

First: CNC(=O)[C@@H](NC(=O)c1nc(/C=C/CN2CCCC2)n2c1CN(C)CC2)C(C)(C)C [Compound 288, (S,E)-N-(3,3-dimethyl-1-(methylamino)-1-oxobutan-2-yl)-7-methyl-3-(3-(pyrrolidin-1-yl)prop-1-enyl)-5,6,7,8-tetrahydroimidazo[1,5-a]pyrazine-1-carboxamide]
Second: CNC(=O)[C@@H](NC(=O)c1nc(/C=C/Cc2ccccc2)n2c1CN(C)CCC2)C(C)(C)C [Compound 458, (S,E)-N-(3,3-dimethyl-1-(methylamino)-1-oxobutan-2-yl)-8-methyl-3-(3-phenylprop-1-enyl)-6,7,8,9-tetrahydro-5H-imidazo[1,5-a][1,4]diazepine-1-carboxamide]
The EC50 of the first is lower: 0.1 to 10 nM for the first, 10 to 100 nM for the second.

`CNC(=O)[C@@H](NC(=O)c1nc(-c2ccccc2)n2c1CN(c1cccc(Cl)n1)CC2)C(C)(C)C` [Compound 299, (S)-7-(6-chloropyridin-2-yl)-N-(3,3-dimethyl-1-(methylamino)-1-oxobutan-2-yl)-3-phenyl-5,6,7,8-tetrahydroimidazo[1,5-a]pyrazine-1-carboxamide] and `CNC(=O)[C@@H](NC(=O)c1nc(-c2ccccc2)n2c1CN(c1cncc(Cl)n1)CC2)C(C)(C)C` [Compound 300, (S)-7-(6-chloropyrazin-2-yl)-N-(3,3-dimethyl-1-(methylamino)-1-oxobutan-2-yl)-3-phenyl-5,6,7,8-tetrahydroimidazo[1,5-a]pyrazine-1-carboxamide] fall in the same range of EC50: 10 to 100 nM for the first, 10 to 100 nM for the second.

`CNC(=O)[C@@H](NC(=O)c1nc(-c2ccc(Cl)cc2F)n2c1CN(C(=O)OC(C)(C)C)CCC2)C(C)(C)C` [Compound 313] and `CNC(=O)[C@@H](NC(=O)c1nc(-c2ccc(Cl)cc2F)n2c1CN(CC(C)C)CCC2)C(C)(C)C` [Compound 322, (S)-3-(4-chloro-2-fluorophenyl)-N-(3,3-dimethyl-1-(methylamino)-1-oxobutan-2-yl)-8-isobutyl-6,7,8,9-tetrahydro-5H-imidazo[1,5-a][1,4]diazepine-1-carboxamide] fall in the same range of EC50: 10 to 100 nM for the first, 10 to 100 nM for the second.

`CNC(=O)[C@@H](NC(=O)c1nc(-c2ccc3ccccc3c2)n2c1CN(C)CCC2)C(C)(C)C` [Compound 380, (S)-N-(3,3-dimethyl-1-(methylamino)-1-oxobutan-2-yl)-8-methyl-3-(naphthalen-2-yl)-6,7,8,9-tetrahydro-5H-imidazo[1,5-a][1,4]diazepine-1-carboxamide] and `CNC(=O)[C@@H](NC(=O)c1nc(-c2ccc(C(C)(C)C)cc2)n2c1CN(C)CCC2)C(C)(C)C` [Compound 414, (S)-3-(4-tert-butylphenyl)-N-(3,3-dimethyl-1-(methylamino)-1-oxobutan-2-yl)-8-methyl-6,7,8,9-tetrahydro-5H-imidazo[1,5-a][1,4]diazepine-1-carboxamide] fall in the same range of EC50: 10 to 100 nM for the first, 10 to 100 nM for the second.

`CNC(=O)[C@@H](NC(=O)c1nc(-c2cccc(C(F)(F)F)c2)n2c1CN(C)CCC2)C(C)(C)C` [Compound 438, (S)-N-(3,3-dimethyl-1-(methylamino)-1-oxobutan-2-yl)-8-methyl-3-(3-(trifluoromethyl)phenyl)-6,7,8,9-tetrahydro-5H-imidazo[1,5-a][1,4]diazepine-1-carboxamide] and `CNC(=O)[C@@H](NC(=O)c1nc(CCCC2CCCC2)n2c1CN(C)CCC2)C(C)(C)C` [Compound 494, (S)-3-(3-cyclopentylpropyl)-N-(3,3-dimethyl-1-(methylamino)-1-oxobutan-2-yl)-8-methyl-6,7,8,9-tetrahydro-5H-imidazo[1,5-a][1,4]diazepine-1-carboxamide] fall in the same range of EC50: 10 to 100 nM for the first, 10 to 100 nM for the second.

`COC(=O)[C@@H](NC(=O)c1nc(-c2ccc(C)cc2F)n2c1CNCCC2)C(C)(C)C` [Compound 466] and `COC(=O)[C@@H](NC(=O)c1nc(-c2ccc(C)cc2F)n2c1CN(CC1CC1)CCC2)C(C)(C)C` [Compound 470, (S)-methyl 2-(8-(cyclopropylmethyl)-3-(2-fluoro-4-methylphenyl)-6,7,8,9-tetrahydro-5H-imidazo[1,5-a][1,4]diazepine-1-carboxamido)-3,3-dimethylbutanoate] fall in the same range of EC50: 10 to 100 nM for the first, 10 to 100 nM for the second.

`Cc1ccc(-c2nc(C(=O)N[C@H](c3nc(C)no3)C(C)(C)C)c3n2CCCNC3)c(F)c1` [Compound 520, (S)-N-(2,2-dimethyl-1-(3-methyl-1,2,4-oxadiazol-5-yl)propyl)-3-(2-fluoro-4-methylphenyl)-6,7,8,9-tetrahydro-5H-imidazo[1,5-a][1,4]diazepine-1-carboxamide] and `Cc1ccc(-c2nc(C(=O)N[C@H](c3nc(C)no3)C(C)(C)C)c3n2CCCN(C)C3)c(F)c1` [Compound 522, (S)-N-(2,2-dimethyl-1-(3-methyl-1,2,4-oxadiazol-5-yl)propyl)-3-(2-fluoro-4-methylphenyl)-8-methyl-6,7,8,9-tetrahydro-5H-imidazo[1,5-a][1,4]diazepine-1-carboxamide] fall in the same range of EC50: 10 to 100 nM for the first, 10 to 100 nM for the second.

`Cc1ccc(-c2nc(C(=O)N[C@H](c3nc(C)no3)C(C)(C)C)c3n2CCCN(C(C)C)C3)c(F)c1` [Compound 523, (S)-N-(2,2-dimethyl-1-(3-methyl-1,2,4-oxadiazol-5-yl)propyl)-3-(2-fluoro-4-methylphenyl)-8-isopropyl-6,7,8,9-tetrahydro-5H-imidazo[1,5-a][1,4]diazepine-1-carboxamide] was tested, and the EC50 was 10 to 100 nM.
